In patent publication US7888382B2, “Combined pharmaceutical preparation for treatment of type 2 diabetes” (Kissei Pharmaceutical Co., Ltd., priority 2005, dated 2011):
Read-outs that look alike come from different tables or passages of the source.

Legend:
[1] = system: patients with type 2 diabetes; details: human, in vivo
Description: Clinical trials as follows were performed with double-blind, parallel group trial on patients with type 2 diabetes.
Type 2 diabetic patients of at least 20 years old whose blood glucose could not be sufficiently controlled by a dietary therapy and who requires introduction of medication and has HbA1C of at least 6.5% and less than 8.5%.
(1) 5 mg tablet of mitiglinide calcium hydrate (hereafter also referred to as “KAD-1229”)
(2) placebo tablet of KAD-1229 5 mg tablet
(4) placebo tablet of KAD-1229 10 mg tablet
(5) 0.2 mg tablet of voglibose
(6) placebo tablet of voglibose 0.2 mg tablet
(Method of Administration)
A 0.2 mg tablet of voglibose was orally administered 3 times a day immediately before every meal (within 5 minutes before eating) for 16 weeks (an observation period: a non-blind trial period). Thereafter, investigational drugs distributed as Table 1 were orally administered 3 times a day immediately before every meal (within 5 minutes before eating) for 12 weeks (a treatment period: a double-blind trial period). Administration of the investigational drugs after meal was not allowed, and administration was not performed when the meal was not taken.
The following items were assessed during and after the period of administration.

Male Wistar rats = experiment: Oral sucrose tolerance test; format: in vivo, rat; details: in combination with voglibose, sucrose 2.5 g/kg, compared to nateglinide or repaglinide, FIG. 11
Description: Male Wistar rats purchased from Japan SLC, Inc. were used in this test.
An oral sucrose tolerance test was performed using 7-week-old rats.
The rats were fasted for at least 16 hours and received oral administration of 2.5 mL/kg of a prepared tested substance or a vehicle (0.5% CMC solution), followed by oral administration of 5 mL/kg of 0.5 g/mL sucrose solution (2.5 g/kg). Blood was drawn from a rat tail vein immediately before administration and 0.25 and 0.5 hours after loading. A plasma glucose concentration was measured using a Glucose CII-test Wako (Wako Pure Chemical Industries, Ltd.).
A dose of the tested substance was converted from a usual dose of each drug for a type 2 diabetic patient (mitiglinide: 10 mg, nateglinide: 120 mg, repaglinide: 1 mg). As for nateglinide, a converted value of 12 mg was changed to 20 mg to be set as a dose, considering an effect thereof.
An area under the plasma glucose concentration-time curve from a time before sucrose loading to 0.5 hours after sucrose loading (AUC0-0.5 hr) was set as an assessment item. Blood glucose AUC0-0.5 hr was calculated from plasma glucose concentrations with a trapezoidal rule using the area under the plasma glucose concentration-time curve.
Excel (Microsoft Corp.) and GraphPad Prism 3.0 (GraphPad Software Inc.) were used to aggregate and calculate data, to make diagrams and the like. […]

Row | SMILES | Incidence rate of gastrointestinal disorders ([1]; 12 weeks) | Incidence rate of hypoglycemic symptoms ([1]; 12 weeks) | blood glucose decreasing effect (blood glucose AUC0-0.5 hr) (Male Wistar rats) | Incidence rate of gastrointestinal disorders [1] | Incidence rate of hypoglycemic symptoms [1]
1 | OCC(CO)N[C@H]1C[C@](O)(CO)[C@@H](O)[C@H](O)[C@H]1O [Comparative Example 1, voglibose] | 10.1% | 1.1% | – | – | –
2 | O.O.O=C([O-])[C@H](CC(=O)N1C[C@H]2CCCC[C@H]2C1)Cc1ccccc1.O=C([O-])[C@H](CC(=O)N1C[C@H]2CCCC[C@H]2C1)Cc1ccccc1.[Ca+2] [Comparative Example 2, mitiglinide calcium hydrate] | – | – | strong blood glucose decreasing effect within a very short time | 6.8% | 3.9%
